Read-outs that look alike come from different tables or passages of the source.
How the values were obtained:
[1] = target: T1, M1 muscarinic receptor (Homo sapiens, UniProt P11229); assay: Functional mobilization of intracellular calcium (FLIPR) in M1-CHO cells; format: cell-based
T1 construct: expressed in transfected cells; host or cells: CHO (M1-CHO)
T1 sequence (P11229 1-460): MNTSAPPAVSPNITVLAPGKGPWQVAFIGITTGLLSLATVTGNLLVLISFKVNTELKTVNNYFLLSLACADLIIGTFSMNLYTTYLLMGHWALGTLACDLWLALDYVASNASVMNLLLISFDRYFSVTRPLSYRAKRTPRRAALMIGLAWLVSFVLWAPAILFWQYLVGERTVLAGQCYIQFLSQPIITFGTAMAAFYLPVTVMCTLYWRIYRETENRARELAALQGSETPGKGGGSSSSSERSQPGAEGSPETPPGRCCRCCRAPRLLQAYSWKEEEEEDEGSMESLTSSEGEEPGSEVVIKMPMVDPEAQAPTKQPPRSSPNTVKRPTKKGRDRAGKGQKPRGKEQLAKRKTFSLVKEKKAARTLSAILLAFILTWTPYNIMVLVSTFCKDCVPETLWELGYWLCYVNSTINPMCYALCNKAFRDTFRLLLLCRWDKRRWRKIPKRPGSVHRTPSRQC
Procedure, shortened: (§1)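 Two modes: direct compound addition for agonism, or 15 min compound pre-incubation (or co-application) before carbachol at EC80 for inhibition. Calcium signal from Fluo-3 AM or Calcium 3 dye in CHO cells, 1 mM probenecid, pH 7.4, read 60 sec at 488/540 nm; DMSO 0.5% final.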

[2] = target: T2, M4 muscarinic receptor (Homo sapiens, UniProt P08173); assay: Functional mobilization of intracellular calcium (FLIPR) in M4-CHO cells; format: cell-based
T2 construct: expressed in transfected cells; host or cells: CHO (M4-CHO)
T2 sequence (P08173 1-479): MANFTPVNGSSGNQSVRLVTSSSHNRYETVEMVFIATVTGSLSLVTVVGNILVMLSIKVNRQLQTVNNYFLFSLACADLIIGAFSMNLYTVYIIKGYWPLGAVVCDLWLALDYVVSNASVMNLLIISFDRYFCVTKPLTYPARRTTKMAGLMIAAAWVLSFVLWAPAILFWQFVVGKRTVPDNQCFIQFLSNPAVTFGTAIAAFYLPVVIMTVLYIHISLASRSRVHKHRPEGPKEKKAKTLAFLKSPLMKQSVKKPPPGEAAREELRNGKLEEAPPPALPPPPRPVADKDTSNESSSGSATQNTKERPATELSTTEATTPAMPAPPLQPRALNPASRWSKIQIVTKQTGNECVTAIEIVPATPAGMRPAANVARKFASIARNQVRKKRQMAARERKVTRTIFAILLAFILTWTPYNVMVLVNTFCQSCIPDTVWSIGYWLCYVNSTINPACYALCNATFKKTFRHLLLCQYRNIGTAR
Procedure, shortened: as §1

[3] = Table 4, 100% efficacy is the maximum response obtained with the Carbachol control
[4] = Table 4, M1 receptor, calcium mobilization (FLIPR)
[5] = Table 4, M4 receptor, calcium mobilization (FLIPR)
[6] = M1 receptor, calcium mobilization
[7] = M1 receptor, calcium mobilization, read-out: M1 Efficacy
[8] = M4 receptor, calcium mobilization
[9] = M4 receptor, calcium mobilization, read-out: M4 Efficacy
[10] = 100% efficacy is the maximum response obtained with the Carbachol control, Table 5
[11] = Table 4, modulating M1 receptor
[12] = Table 4, modulating M4 receptor

Row | SMILES | Emax [1, 3] | Emax [2, 3] | M1 Activity [1, 6] | Emax [1, 7] | M4 Activity [2, 8] | Emax [2, 9] | M1 Activity [1, 11] | M4 Activity [2, 12] | other results
1 | CCCC(=O)N[C@H]1CC2(CCN(C[C@@H]3C[C@H]4C=CC3C4)CC2)c2ccccc21 [compound 1016] | 25 to 100% | 25 to 100% | – | – | – | – | – | – | M1 Activity [1, 4]: xxx (activity was measured to be less than 2.0 μM); M4 Activity [2, 5]: xxx (activity was measured to be less than 2.0 μM)
2 | O=C1Nc2ccccc2C12CCN(C1CC3CCC1C3)CC2 (stereo not shown) [compound 259] | – | – | x (activity was measured to be greater than 1.0 μM) | 65 to 85% | x (activity was measured to be greater than 1.0 μM) | < 65% | – | – | –
3 | CN(C)C(=O)N1CC2(CCN(C[C@H]3CCN(c4cnccn4)C3)CC2)c2cc(F)ccc21 [compound 1035] | – | – | – | – | – | – | – | – | Emax [1, 10]: > 100%; EC50 ([1]; CHO cells expressing M1, calcium mobilization, Table 5): < 2000 nM; Emax [2, 10]: 25 to 100%; EC50 ([2]; CHO cells expressing M4, calcium mobilization, Table 5): < 2000 nM
4 | CC#CCOC(=O)N1CC[C@@H](CN2CCC3(CC2)CN(C(=O)N(C)C)c2ccc(F)cc23)C1 [compound 939] | 25 to 100% | 25 to 100% | – | – | – | – | – | – | M1 Activity [1, 4]: xxx (activity was measured to be less than 2.0 μM); M4 Activity [2, 5]: xxx (activity was measured to be less than 2.0 μM)
5 | O=C(N[C@H]1CC2(CCN([C@@H]3CC4CC[C@@H]3C4)CC2)c2ccccc21)C1CC1 [compound 650] | 25 to 100% | 25 to 100% | – | – | – | – | xxx (activity was measured to be less than 2.0 μM) | xxx (activity was measured to be less than 2.0 μM) | –
6 | CCOC(=O)N1CCC(N2CCC3(CC2)CN(CC(=O)N(C)C)c2ccc(F)cc23)CC1 [compound 800] | 25 to 100% | 25 to 100% | – | – | – | – | xxx (activity was measured to be less than 2.0 μM) | xxx (activity was measured to be less than 2.0 μM) | –
7 | CCOC(=O)N1CCC(N2CCC3(CC2)CN(C(=O)C2CCCCC2)c2ccc(F)cc23)CC1 [compound 281] | – | – | xx (activity was measured to be between 0.1 μM and 1.0 μM) | < 65% | xx (activity was measured to be between 0.1 μM and 1.0 μM) | 65 to 85% | – | – | –
8 | CCOC(=O)N1C2CCC1CC(N1CCC3(CC1)CN(C(C)=O)c1ccc(S(C)(=O)=O)cc13)C2 (stereo not shown) [compound 580] | 25 to 100% | 25 to 100% | – | – | – | – | xxx (activity was measured to be less than 2.0 μM) | x (activity was measured to be greater than 5.0 μM) | –
9 | CC(=O)N[C@H]1CC2(CCN(C3CCC(C(C)C)CC3)CC2)c2ccccc21 (stereo partly shown) [compound 759] | < 25% | < 25% | – | – | – | – | x (activity was measured to be greater than 5.0 μM) | x (activity was measured to be greater than 5.0 μM) | –
10 | CCOC(=O)N1C2CCC1CC(N1CCC3(CC1)CN(C(=O)NC(C)C)c1ccc(F)cc13)C2 (stereo not shown) [compound 296] | – | – | x (activity was measured to be greater than 1.0 μM) | 65 to 85% | x (activity was measured to be greater than 1.0 μM) | 65 to 85% | – | – | –
11 | CCC(C)C(=O)N1CCC(N2CCC3(CC2)CN(C(C)=O)c2ccccc23)CC1 (stereo not shown) [compound 1000] | 25 to 100% | 25 to 100% | – | – | – | – | – | – | M1 Activity [1, 4]: x (activity was measured to be greater than 5.0 μM); M4 Activity [2, 5]: x (activity was measured to be greater than 5.0 μM)
12 | CN(C)C(=O)N1CC2(CCN(C3CCN(C(=O)c4ccccn4)CC3)CC2)c2cc(F)ccc21 [compound 718] | < 25% | < 25% | – | – | – | – | x (activity was measured to be greater than 5.0 μM) | x (activity was measured to be greater than 5.0 μM) | –
13 | CCOC(=O)N1CCC(N2CCC3(CC2)CN(C(C)=O)c2c(-c4cccc(OC)c4)cccc23)CC1 [compound 467] | 25 to 100% | 25 to 100% | – | – | – | – | xx (activity was measured to be between 2.0 μM and 5.0 μM) | xx (activity was measured to be between 2.0 μM and 5.0 μM) | –
14 | CCOC(=O)N1CCC(N2CCC3(CC2)CN(C(C)=O)c2ccc(-c4cccc(C#N)c4)cc23)CC1 [compound 373] | – | – | xxx (activity was measured to be less than 0.1 μM) | 65 to 85% | xx (activity was measured to be between 0.1 μM and 1.0 μM) | > 85% | – | – | –
15 | CC(=O)CN1CC2(CCN(C3CCCCC3)CC2)c2cc(F)ccc21 [compound 796] | 25 to 100% | 25 to 100% | – | – | – | – | xxx (activity was measured to be less than 2.0 μM) | xxx (activity was measured to be less than 2.0 μM) | –
16 | O=C(N[C@H]1CC2(CCN(CC3CCCCC3)CC2)c2ccccc21)C1CC1 [compound 955] | 25 to 100% | 25 to 100% | – | – | – | – | – | – | M1 Activity [1, 4]: xxx (activity was measured to be less than 2.0 μM); M4 Activity [2, 5]: xxx (activity was measured to be less than 2.0 μM)
17 | CC(=O)N[C@@H]1CC2(CCN(C3CCC3)CC2)c2ccccc21 [compound 682] | < 25% | < 25% | – | – | – | – | x (activity was measured to be greater than 5.0 μM) | x (activity was measured to be greater than 5.0 μM) | –
18 | CCCOC(=O)N1CCC(N2CCC3(CC2)CN(C(C)=O)c2ccccc23)CC1 [compound 910] | 25 to 100% | < 25% | – | – | – | – | – | – | M1 Activity [1, 4]: xxx (activity was measured to be less than 2.0 μM); M4 Activity [2, 5]: xx (activity was measured to be between 2.0 μM and 5.0 μM)
19 | CCOC(=O)N1CCC(N2CCC3(CC2)CN(C(=O)C2CC2)c2ccc(F)cc23)CC1 [compound 136] | – | – | xxx (activity was measured to be less than 0.1 μM) | > 85% | xxx (activity was measured to be less than 0.1 μM) | > 85% | – | – | –
20 | CCOC(=O)N1CC[C@H](CN2CCC3(CC2)CN(C(=O)N(C)C)c2ccc(F)cc23)C1 [compound 695] | 25 to 100% | 25 to 100% | – | – | – | – | xxx (activity was measured to be less than 2.0 μM) | xxx (activity was measured to be less than 2.0 μM) | –
21 | COCCN1CCC(N2CCC3(CC2)CN(C(C)=O)c2ccc(F)cc23)CC1 [compound 474] | < 25% | < 25% | – | – | – | – | x (activity was measured to be greater than 5.0 μM) | x (activity was measured to be greater than 5.0 μM) | –
22 | CCOC(=O)N[C@H]1CC2(CCN(C[C@H]3C[C@H]4CC[C@H]3C4)CC2)c2ccccc21 [compound 326] | – | – | x (activity was measured to be greater than 1.0 μM) | < 65% | x (activity was measured to be greater than 1.0 μM) | < 65% | – | – | –
23 | CCCOC(=O)N1C2CCC1CC(N1CCC3(CC1)CN(C(=O)N(C)C)c1ccc(F)cc13)C2 (stereo not shown) [compound 360] | – | – | xx (activity was measured to be between 0.1 μM and 1.0 μM) | 65 to 85% | x (activity was measured to be greater than 1.0 μM) | < 65% | – | – | –
24 | C#CCOC(=O)N1CCC(CN2CCC3(CC2)C[C@H](NC(C)=O)c2ccccc23)CC1 [compound 364] | – | – | xxx (activity was measured to be less than 0.1 μM) | > 85% | x (activity was measured to be greater than 1.0 μM) | < 65% | – | – | –
25 | CCC#CCOC(=O)N1CC[C@H](CN2CCC3(CC2)CN(C(C)=O)c2ccccc23)C1 [compound 578] | 25 to 100% | 25 to 100% | – | – | – | – | xxx (activity was measured to be less than 2.0 μM) | xxx (activity was measured to be less than 2.0 μM) | –

Reference: patent US7786141B2 (Vertex Pharmaceuticals Incorporated, priority 2004, dated 2010)
